From BindingDB's records for doi:10.1021/jm1006148 (Sri International, 2010)
pKi: −log10 of the molar value.

Target: Neuronal acetylcholine receptor subunit alpha-7 (Rattus norvegicus, UniProt Q05941)
Assay: Displacement of [3H]epibatidine from alpha7 nAChR in rat brain membranes after 2 hrs

Chain of Neuronal acetylcholine receptor subunit alpha-7 (Q05941 whole entry): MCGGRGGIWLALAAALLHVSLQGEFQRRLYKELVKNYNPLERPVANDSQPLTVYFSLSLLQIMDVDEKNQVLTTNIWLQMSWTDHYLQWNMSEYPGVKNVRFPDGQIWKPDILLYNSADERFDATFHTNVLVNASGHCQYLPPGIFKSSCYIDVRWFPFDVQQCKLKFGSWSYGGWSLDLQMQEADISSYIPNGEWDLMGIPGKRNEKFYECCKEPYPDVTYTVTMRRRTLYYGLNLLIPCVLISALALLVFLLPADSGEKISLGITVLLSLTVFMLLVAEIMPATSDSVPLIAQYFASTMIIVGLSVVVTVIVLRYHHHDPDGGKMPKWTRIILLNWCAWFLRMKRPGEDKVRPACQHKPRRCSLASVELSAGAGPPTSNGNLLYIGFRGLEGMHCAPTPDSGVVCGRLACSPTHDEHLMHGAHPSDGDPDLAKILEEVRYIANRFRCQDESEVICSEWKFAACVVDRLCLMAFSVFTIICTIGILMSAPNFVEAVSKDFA

How did the pKi turn out when CN1C2CCCC1CC(N1C(=O)Cc3ccccc31)C2 (stereo unspecified) [1-(1-(9-methyl-9-azabicyclo[3.3.1]nonan-3-yl)indolin-2-one] was run?
Its pKi is less than 4.00.
